Test results from PMC8557474, “Reliability of the AR-CALUX®In Vitro Method Used to Detect Chemicals with (Anti)Androgen Activity: Results of an International Ring Trial” (Toxicological Sciences, 2021).
Converted amounts (≈) assume the structure as drawn.

Test: physchem
Protocol: It details the cell cultivation and seeding procedure, the preparation of the reference, control and test chemicals, the procedure for agonist testing and antagonist testing, prescreen runs, and comprehensive runs, as well as data analysis and data interpretation. This SOP also includes references to the SOPs for solubility testing and cytotoxicity testing. […] Solubility was tested both in the solvent and in media under similar circumstances as would be required during the (ant)agonist testing. The initial concentration to be tested was prescribed at 50 mg/ml. Starting from the highest soluble concentration, cytotoxicity was determined with an LDH assay. Visual checking of cytotoxicity in all wells of the plate was however also required for each run.
This included an investigation by heating, centrifugation, microscopy, and visual checking. […] For the purpose of the validation study, the labs were requested to start from 50 mg/ml as the maximal stock concentration to be tested.

[1] = aqueous buffer, kinetic from dmso stock, Solubility in medium, Lab 1, assay medium, Lab 1
[2] = aqueous buffer, kinetic from dmso stock, Solubility in medium, Lab 2, assay medium, Lab 2
[3] = aqueous buffer, kinetic from dmso stock, Solubility in medium, Lab 3, assay medium, Lab 3
[4] = aqueous buffer, kinetic from dmso stock, Solubility in medium, Lab 4, assay medium, Lab 4
[5] = organic solvent or mixture, thermodynamic from solid, Solubility in DMSO, Lab 1, DMSO, Lab 1, highest tested 50 mg/ml
[6] = organic solvent or mixture, thermodynamic from solid, Solubility in DMSO, Lab 2, DMSO, Lab 2, highest tested 50 mg/ml
[7] = organic solvent or mixture, thermodynamic from solid, Solubility in DMSO, Lab 3, DMSO, Lab 3, highest tested 50 mg/ml
[8] = organic solvent or mixture, thermodynamic from solid, Solubility in DMSO, Lab 4, DMSO, Lab 4, highest tested 50 mg/ml
[9] = DMSO, organic solvent or mixture, thermodynamic from solid, Solubility in DMSO, Lab 1, DMSO, Lab 1, highest tested 50 mg/ml
[10] = DMSO, organic solvent or mixture, thermodynamic from solid, Solubility in DMSO, Lab 2, DMSO, Lab 2, highest tested 50 mg/ml
[11] = DMSO, organic solvent or mixture, thermodynamic from solid, Solubility in DMSO, Lab 3, DMSO, Lab 3, highest tested 50 mg/ml
[12] = DMSO, organic solvent or mixture, thermodynamic from solid, Solubility in DMSO, Lab 4, DMSO, Lab 4, highest tested 50 mg/ml
[13] = assay medium, aqueous buffer, kinetic from dmso stock, Solubility in medium, Lab 1, assay medium, Lab 1
[14] = assay medium, aqueous buffer, kinetic from dmso stock, Solubility in medium, Lab 2, assay medium, Lab 2
[15] = assay medium, aqueous buffer, kinetic from dmso stock, Solubility in medium, Lab 3, assay medium, Lab 3
[16] = assay medium, aqueous buffer, kinetic from dmso stock, Solubility in medium, Lab 4, assay medium, Lab 4
[17] = DMSO, Lab 1, highest tested 50 mg/ml
[18] = DMSO, Lab 2, highest tested 50 mg/ml
[19] = DMSO, Lab 3, highest tested 50 mg/ml
[20] = DMSO, Lab 4, highest tested 50 mg/ml

| SMILES | solubility [1] [mg/mL] | solubility [2] [mg/mL] | solubility [3] [mg/mL] | solubility [4] [mg/mL] | solubility [5] [mg/mL] | solubility [6] [mg/mL] | solubility [7] [mg/mL] | solubility [8] [mg/mL] | solubility [9] [mg/mL] | solubility [10] [mg/mL] | solubility [11] [mg/mL] | solubility [12] [mg/mL] | solubility [13] [mg/mL] | solubility [14] [mg/mL] | solubility [15] [mg/mL] | solubility [16] [mg/mL] | other results |
| --- | --- | --- | --- | --- | --- | --- | --- | --- | --- | --- | --- | --- | --- | --- | --- | --- | --- |
| CCCCOC(=O)c1ccccc1C(=O)OCc1ccccc1 [Benzylbutyl phthalate] | 0.0015 (≈ 4.8 µM) | > 0.05 | 0.015 (≈ 48 µM) | 0.015 (≈ 48 µM) | > 50 | > 50 | > 50 | > 50 | – | – | – | – | – | – | – | – | – |
| CC(O)(CS(=O)(=O)c1ccc(F)cc1)C(=O)Nc1ccc(C#N)c(C(F)(F)F)c1 (stereo not drawn) [Bicalutamide] | – | – | – | – | – | – | – | – | > 50 | > 50 | > 50 | > 50 | > 0.05 | > 0.05 | > 0.05 | > 0.05 | – |
| CCCCC(CC)COC(=O)c1ccccc1C(=O)OCC(CC)CCCC (stereo not drawn) [Diethylhexyl phthalate] | – | – | – | – | – | – | – | – | – | – | – | – | – | – | – | – | Solubility in DMSO, Lab 1 [17]: 15 mg/mL (≈ 38400 µM); Solubility in DMSO, Lab 2 [18]: > 50 mg/mL; Solubility in DMSO, Lab 3 [19]: > 50 mg/mL; Solubility in DMSO, Lab 4 [20]: > 50 mg/mL; Solubility in medium, Lab 1 (assay medium, Lab 1): 0.015 mg/mL (≈ 38.4 µM); Solubility in medium, Lab 2 (assay medium, Lab 2): 0.015 mg/mL (≈ 38.4 µM); Solubility in medium, Lab 3 (assay medium, Lab 3): > 0.05 mg/mL; Solubility in medium, Lab 4 (assay medium, Lab 4): > 0.05 mg/mL |
| C[C@]1(O)CC[C@H]2[C@@H]3CCC4=CC(=O)CC[C@]4(C)[C@@]3(F)[C@@H](O)C[C@@]21C [Fluoxymesterone] | 0.005 (≈ 14.9 µM) | 0.005 (≈ 14.9 µM) | 0.005 (≈ 14.9 µM) | 0.015 (≈ 44.6 µM) | > 50 | 5 (≈ 14900 µM) | > 50 | > 50 | – | – | – | – | – | – | – | – | – |
| CC(=O)O[C@]1(C(C)=O)CC[C@H]2[C@@H]3C[C@H](C)C4=CC(=O)CC[C@]4(C)[C@H]3CC[C@@]21C [Medroxyprogesterone acetate] | – | – | – | – | – | – | – | – | 1.5 | 15 | 15 | 5 | 0.0015 | 0.005 | 0.015 | 0.005 | – |
| C[C@]12CCC(=O)C[C@@H]1CC[C@@H]1[C@@H]2CC[C@@]2(C)[C@H]1CC[C@]2(C)O [Methyldihydrotestosterone] | – | – | – | – | – | – | – | – | – | – | – | – | – | – | – | – | Solubility in DMSO, Lab 1 [17]: 5 mg/mL (≈ 16400 µM); Solubility in DMSO, Lab 2 [18]: 5 mg/mL (≈ 16400 µM); Solubility in DMSO, Lab 3 [19]: 15 mg/mL (≈ 49300 µM); Solubility in DMSO, Lab 4 [20]: 15 mg/mL (≈ 49300 µM); Solubility in medium, Lab 1 (assay medium, Lab 1): 0.005 mg/mL (≈ 16.4 µM); Solubility in medium, Lab 2 (assay medium, Lab 2): 0.005 mg/mL (≈ 16.4 µM); Solubility in medium, Lab 3 (assay medium, Lab 3): 0.005 mg/mL (≈ 16.4 µM); Solubility in medium, Lab 4 (assay medium, Lab 4): 0.005 mg/mL (≈ 16.4 µM) |
| CC(=O)S[C@@H]1CC2=CC(=O)CC[C@]2(C)[C@H]2CC[C@@]3(C)[C@@H](CC[C@@]34CCC(=O)O4)[C@H]12 [Spironolactone] | – | – | – | – | – | – | – | – | 15 (≈ 36000 µM) | > 50 | > 50 | > 50 | 0.015 (≈ 36 µM) | > 0.05 | > 0.05 | > 0.05 | – |
| C[C@]12Cc3c[nH]nc3C[C@@H]1CC[C@@H]1[C@@H]2CC[C@@]2(C)[C@H]1CC[C@]2(C)O [Stanozolol] | 0.005 (≈ 15.2 µM) | 0.005 (≈ 15.2 µM) | 0.002 (≈ 6.09 µM) | 0.005 (≈ 15.2 µM) | 5 (≈ 15200 µM) | > 50 | 15 (≈ 45700 µM) | > 50 | – | – | – | – | – | – | – | – | – |
| C=CC1(C)OC(=O)N(c2cc(Cl)cc(Cl)c2)C1=O (stereo not drawn) [Vinclozolin] | 0.005 (≈ 17.5 µM) | 0.015 (≈ 52.4 µM) | 0.015 (≈ 52.4 µM) | 0.015 (≈ 52.4 µM) | > 50 | > 50 | > 50 | > 50 | – | – | – | – | – | – | – | – | – |
